Data as given in patent EP0908457B1, “3-(1,2-benzisothiazol- and isoxazol-5-Y1)-2,4(1H,3H)-pyrimidinedione or thione and 3-(1,2-benzisothiazol- and isoxazol-5-y1)-4(3H)-pyrimidinone or thione herbicidal agents” (BASF AKTIENGESELLSCHAFT, priority 1997, dated 1999).

Experiments:
[1] = tested on: Echinochloa oryzoides (Ard.) Fritsch.; assay: Preemergence weed control under flooded paddy conditions, ECHORC (Watergrass (Calif.)); format: in vivo; conditions: flooded paddy; for ECHORC: herbicidal effect rating 0-9, three to four weeks after treatment; on herbicidal effect rating, ECHORC: meaning of each grade not given here
[2] = tested on: Monochoria vaginalis, Presl.; assay: Preemergence weed control under flooded paddy conditions, MOOVA (Monochoria); format: in vivo; conditions: flooded paddy; for MOOVA: herbicidal effect rating 0-9, three to four weeks after treatment; on herbicidal effect rating, MOOVA: meaning of each grade not given here
[3] = tested on: Cyperus serotinus, Rottb.; assay: Preemergence weed control under flooded paddy conditions, CYPSE (Flatsedge); format: in vivo; conditions: for CYPSE: herbicidal effect rating 0-9, three to four weeks after treatment; on herbicidal effect rating, CYPSE: meaning of each grade not given here
[4] = tested on: Oryza sativa, (L.) Tebonnet; assay: Rice tolerance to post-transplant applications under flooded paddy conditions (Example 187), ORYSAT (Rice, Tebonnet); conditions: for ORYSAT: herbicidal effect rating 0-9, three to four weeks after treatment; on herbicidal effect rating ORYSAT: meaning of each grade not given here
Sagittaria pygmaea, L. = assay: Preemergence weed control under flooded paddy conditions, SAGPY (Arrowhead (Pygmaea)); format: in vivo; conditions: flooded paddy; for SAGPY: herbicidal effect rating 0-9, three to four weeks after treatment; on herbicidal effect rating, SAGPY: meaning of each grade not given here
Cyperus iria = assay: Preemergence weed control under flooded paddy conditions, CYPIR (Rice Flatsedge); format: in vivo; conditions: flooded paddy; for CYPIR: herbicidal effect rating 0-9, three to four weeks after treatment; on herbicidal effect rating, CYPIR: meaning of each grade not given here
[5] = Rate 0.0320 kg/ha, preemergence, rated three to four weeks after treatment
[6] = Rate 0.0620 kg/ha, preemergence, rated three to four weeks after treatment
[7] = Rate 0.1250 kg/ha, preemergence, rated three to four weeks after treatment
[8] = Rate 0.2500 kg/ha, preemergence, rated three to four weeks after treatment
[9] = Rate 0.1250 kg/ha, rated three to four weeks after treatment
[10] = Rate 0.0313 kg/ha, preemergence, rated three to four weeks after treatment
[11] = Rate 0.0625 kg/ha, preemergence, rated three to four weeks after treatment
[12] = Rate 0.0320 kg/ha, preemergence, rated 3-4 weeks after treatment
[13] = Rate 0.0620 kg/ha, preemergence, rated 3-4 weeks after treatment
[14] = Rate 0.1250 kg/ha, preemergence, rated 3-4 weeks after treatment
[15] = Rate 0.2500 kg/ha, preemergence, rated 3-4 weeks after treatment
[16] = 0.0313 kg/ha, preemergence weeds, rated three to four weeks after treatment
[17] = 0.0625 kg/ha, preemergence weeds, rated three to four weeks after treatment
[18] = 0.1250 kg/ha, preemergence weeds, rated three to four weeks after treatment
[19] = 0.2500 kg/ha, preemergence weeds, rated three to four weeks after treatment
[20] = 0.0320 kg/ha, preemergence weeds
[21] = 0.0620 kg/ha, preemergence weeds
[22] = 0.1250 kg/ha, preemergence weeds
[23] = 0.2500 kg/ha, preemergence weeds

Cn1c(C(F)(F)F)cc(=O)n(-c2ccc3snc(C(C#N)=Cc4ccc(O)cc4)c3c2)c1=O [Example 600, 1,2-Benzisothiazole-3-acetonitrile, 5-[3,6-dihydro-3-methyl-2,6-dioxo-4-(trifluoromethyl)-1(2H)-pyrimidinyl]-alpha-(p-hydroxybenzylidene)-]
7.0: herbicidal effect rating, MOOVA [2, 7] | herbicidal effect rating, MOOVA [2, 8]
4.0: herbicidal effect rating ORYSAT [4, 9] | herbicidal effect rating ORYSAT ([4]; Rate 0.2500 kg/ha, rated three to four weeks after treatment)
3.0: herbicidal effect rating ORYSAT ([4]; Rate 0.0320 kg/ha, rated three to four weeks after treatment) | herbicidal effect rating ORYSAT ([4]; Rate 0.0620 kg/ha, rated three to four weeks after treatment)
0.0: herbicidal effect rating, ECHORC [1, 5] | herbicidal effect rating, ECHORC [1, 6] | herbicidal effect rating, ECHORC [1, 7] | herbicidal effect rating, CYPSE [3, 5] | herbicidal effect rating, CYPSE [3, 6] | herbicidal effect rating, CYPSE [3, 8] | herbicidal effect rating, SAGPY (Sagittaria pygmaea, L.; [5]) | herbicidal effect rating, SAGPY (Sagittaria pygmaea, L.; [6]) | herbicidal effect rating, SAGPY (Sagittaria pygmaea, L.; [7]) | herbicidal effect rating, SAGPY (Sagittaria pygmaea, L.; [8]) | herbicidal effect rating, CYPIR (Cyperus iria; [5]) | herbicidal effect rating, CYPIR (Cyperus iria; [6]) | herbicidal effect rating, CYPIR (Cyperus iria; [7])
2.0: herbicidal effect rating, ECHORC [1, 8] | herbicidal effect rating, CYPIR (Cyperus iria; [8])
6.0: herbicidal effect rating, MOOVA [2, 5] | herbicidal effect rating, MOOVA [2, 6]

Cn1c(C(F)(F)F)cc(=O)n(-c2ccc3snc(COC4C=CCCC4)c3c2)c1=O (stereo not drawn) [Example 209, 3-{3-[(2-Cyclohexen-1-yloxy)methyl]-1,2-benzisothiazol-5-yl}-1-methyl-6-(trifluoromethyl)-2,4(1H,3H)-pyrimidinedione]
2.0: ECHORC herbicidal effect rating [1, 11] | ECHORC herbicidal effect rating [1, 7] | CYPIR herbicidal effect rating (Cyperus iria; [10])
8.0: CYPIR herbicidal effect rating (Cyperus iria; [7])
3.0: ORYSAT herbicidal effect rating ([4]; Rate 0.0313 kg/ha, rated three to four weeks after treatment) | ORYSAT herbicidal effect rating ([4]; Rate 0.0625 kg/ha, rated three to four weeks after treatment)
4.0: ORYSAT herbicidal effect rating [4, 9] | CYPIR herbicidal effect rating (Cyperus iria; [11])
0.0: MOOVA herbicidal effect rating [2, 10] | MOOVA herbicidal effect rating [2, 11] | MOOVA herbicidal effect rating [2, 7] | CYPSE herbicidal effect rating [3, 10] | CYPSE herbicidal effect rating [3, 11] | CYPSE herbicidal effect rating [3, 7] | SAGPY herbicidal effect rating (Sagittaria pygmaea, L.; [10]) | SAGPY herbicidal effect rating (Sagittaria pygmaea, L.; [11]) | SAGPY herbicidal effect rating (Sagittaria pygmaea, L.; [7])
1.0: ECHORC herbicidal effect rating [1, 10]

CON(C)C(=O)/C=C/c1nsc2ccc(-n3c(=O)cc(C(F)(F)F)n(C)c3=O)cc12 [Example 565, 1,2-Benzisothiazole-3-acrylamide, 5-[3,6-dihydro-3-methyl-2,6-dioxo-4-(trifluoromethyl)-1(2H)-pyrimidinyl]-N-methoxy-N-methyl-, (E)-]
0.0: herbicidal effect rating, ECHORC [1, 12] | herbicidal effect rating, ECHORC [1, 13] | herbicidal effect rating, ECHORC [1, 14] | herbicidal effect rating, ECHORC [1, 15] | herbicidal effect rating, CYPSE [3, 12] | herbicidal effect rating, CYPSE [3, 13] | herbicidal effect rating, CYPSE [3, 14] | herbicidal effect rating, CYPSE [3, 15] | herbicidal effect rating ORYSAT ([4]; Rate 0.0320 kg/ha, rated 3-4 weeks after treatment) | herbicidal effect rating ORYSAT ([4]; Rate 0.0620 kg/ha, rated 3-4 weeks after treatment) | herbicidal effect rating, SAGPY (Sagittaria pygmaea, L.; [12]) | herbicidal effect rating, SAGPY (Sagittaria pygmaea, L.; [13]) | herbicidal effect rating, SAGPY (Sagittaria pygmaea, L.; [14]) | herbicidal effect rating, SAGPY (Sagittaria pygmaea, L.; [15]) | herbicidal effect rating, CYPIR (Cyperus iria; [12])
9.0: herbicidal effect rating, MOOVA [2, 12] | herbicidal effect rating, MOOVA [2, 13] | herbicidal effect rating, MOOVA [2, 14] | herbicidal effect rating, MOOVA [2, 15]
2.0: herbicidal effect rating ORYSAT ([4]; Rate 0.1250 kg/ha, rated 3-4 weeks after treatment)
3.0: herbicidal effect rating ORYSAT ([4]; Rate 0.2500 kg/ha, rated 3-4 weeks after treatment) | herbicidal effect rating, CYPIR (Cyperus iria; [13])
6.0: herbicidal effect rating, CYPIR (Cyperus iria; [14]) | herbicidal effect rating, CYPIR (Cyperus iria; [15])

CC(C)SCc1nsc2ccc(-n3c(=O)cc(C(F)(F)F)n(C)c3=O)cc12 [Example 202, 3-{3-[(Isopropylthio)methyl]-1,2-benzisothiazol-5-yl]-1-methyl-6-(trifluoromethyl)-2,4(1H,3H)-pyrimidinedione]
5.0: herbicidal effect rating, ORYSAT (rice tolerance) ([4]; 0.1250 kg/ha, rated three to four weeks after treatment)
2.0: herbicidal effect rating, ECHORC [1, 18] | herbicidal effect rating, ECHORC [1, 19]
1.0: herbicidal effect rating, ECHORC [1, 16] | herbicidal effect rating, ECHORC [1, 17]
3.0: herbicidal effect rating, ORYSAT (rice tolerance) ([4]; 0.0313 kg/ha, rated three to four weeks after treatment)
9.0: herbicidal effect rating, CYPIR (Cyperus iria; [16]) | herbicidal effect rating, CYPIR (Cyperus iria; [17]) | herbicidal effect rating, CYPIR (Cyperus iria; [18]) | herbicidal effect rating, CYPIR (Cyperus iria; [19])
6.0: herbicidal effect rating, ORYSAT (rice tolerance) ([4]; 0.2500 kg/ha, rated three to four weeks after treatment)
4.0: herbicidal effect rating, ORYSAT (rice tolerance) ([4]; 0.0625 kg/ha, rated three to four weeks after treatment)
0.0: herbicidal effect rating, MOOVA [2, 16] | herbicidal effect rating, MOOVA [2, 17] | herbicidal effect rating, MOOVA [2, 18] | herbicidal effect rating, MOOVA [2, 19] | herbicidal effect rating, CYPSE [3, 16] | herbicidal effect rating, CYPSE [3, 17] | herbicidal effect rating, CYPSE [3, 18] | herbicidal effect rating, CYPSE [3, 19] | herbicidal effect rating, SAGPY (Sagittaria pygmaea, L.; [16]) | herbicidal effect rating, SAGPY (Sagittaria pygmaea, L.; [17]) | herbicidal effect rating, SAGPY (Sagittaria pygmaea, L.; [18]) | herbicidal effect rating, SAGPY (Sagittaria pygmaea, L.; [19])

CCSC(=O)c1nsc2ccc(-n3c(=O)cc(C(F)(F)F)n(C)c3=O)cc12 [Example 422, 1,2-Benzisothiazole-3-thiocarboxylic acid, 5-[3,6-dihydro-3-methyl-2,6-dioxo-4-(trifluoromethyl)-1(2H)-pyrimidinyl]-, S-ethyl ester]
9.0: ECHORC [1, 22] | ECHORC [1, 23] | MOOVA [2, 21] | MOOVA [2, 22] | MOOVA [2, 23] | CYPIR (Cyperus iria; [22]) | CYPIR (Cyperus iria; [23])
3.0: ORYSAT ([4]; 0.2500 kg/ha) | SAGPY (Sagittaria pygmaea, L.; [22])
6.0: ECHORC [1, 21] | SAGPY (Sagittaria pygmaea, L.; [23]) | CYPIR (Cyperus iria; [21])
0.0: CYPSE [3, 20] | ORYSAT ([4]; 0.0320 kg/ha) | ORYSAT ([4]; 0.0620 kg/ha) | SAGPY (Sagittaria pygmaea, L.; [20]) | SAGPY (Sagittaria pygmaea, L.; [21])
7.0: MOOVA [2, 20]
2.0: ORYSAT ([4]; 0.1250 kg/ha)
5.0: ECHORC [1, 20] | CYPSE [3, 21] | CYPIR (Cyperus iria; [20])
